These results are taken from patent US11596639B2, “Substituted indole Mcl-1 inhibitors” (Vanderbilt University, priority 2016, dated 2023).

A word on the Ki: it is the equilibrium dissociation constant of an inhibitor or competing ligand from its target.

One experiment deals with Mcl-1 (Homo sapiens (Human), UniProt Q07820). The experiment in a line: TR-FRET binding assay, FITC-Bak peptide and MBP-tagged Mcl-1. The note with it: read-out: Ki for Inhibition of Mcl-1 by TR-FRET assay. As to the method: Compounds are diluted in DMSO in a 16-point, semilog serial dilution scheme. […] The plate was mixed and incubated for 3 hours at room temperature. […] TR-FRET signal is plotted and IC50 and Ki values are calculated in the same manner as the fluorescence polarization anisotropy based competition assays.
Chain of Mcl-1 (Q07820 172-327): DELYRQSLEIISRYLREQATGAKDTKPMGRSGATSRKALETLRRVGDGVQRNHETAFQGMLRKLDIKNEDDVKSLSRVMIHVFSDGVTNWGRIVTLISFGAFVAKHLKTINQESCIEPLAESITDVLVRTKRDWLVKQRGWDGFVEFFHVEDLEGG
On the technique in general: Time-resolved FRET reads energy transfer from a long-lived donor to a nearby acceptor.

The subject of experiment [1] is H929 human cancer cell lines. The experiment in a line: Cellular viability / proliferation (Cell TiterGlo, 72 h). The class given is cell-based. In a few lines: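 Top dose 50 μM, serially diluted 2-fold, applied one day after seeding (1,000 cells/well, 10% FBS), DMSO below 1%.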
On the technique in general: ATP-based viability assays read luminescence as a measure of living cells.

Where [2] appears, read: Homo sapiens, NCI-H929, 72 h, read-out: GI50 on cellular proliferation of H929 human cancer cell lines, H929 cells, 72 h, Cell TiterGlo, 10% FBS.

Where two headings read alike, the source gives them in different places.

For the molecule `CC(=O)N1CCN(c2cccc(Cn3c(C(=O)O)cc4cc(C)cc(N5C[C@@H](C)n6c(c(CCCOc7cc(C)c(Cl)c(C)c7)c7ccc(Cl)c(-c8c(C)nn(C)c8C)c76)C5=O)c43)n2)CC1` [Example 528, (R)-1-((6-(4-acetylpiperazin-1-yl)pyridin-2-yl)methyl)-7-(7-chloro-10-(3-(4-chloro-3,5-dimethylphenoxy)propyl)-4-methyl-1-oxo-6-(1,3,5-trimethyl-1H-pyrazol-4-yl)-3,4-dihydropyrazino[1,2-a]indol-2(1H)-yl)-5-methyl-1H-indole-2-carboxylic acid], at Mcl-1, the Ki was less than 0.0002 µM. Further, the GI50 in experiment [1] (setting [2]) is 0.87 µM.
On to `Cc1cc(OCCCc2c3n(c4c(-c5c(C)nn(C)c5C)c(Cl)ccc24)[C@H](C)CN(c2cn(CCCl)c4ccc(-c5ncn(C)n5)cc24)C3=O)cc(C)c1Cl` [Example 529, (R)-7-Chloro-10-(3-(4-chloro-3,5-dimethylphenoxy)propyl)-2-(1-(2-chloroethyl)-5-(1-methyl-1H-1,2,4-triazol-3-yl)-1H-indol-3-yl)-4-methyl-6-(1,3,5-trimethyl-1H-pyrazol-4-yl)-3,4-dihydropyrazino[1,2-a]indol-1(2H)-one], for which, on Mcl-1, the Ki was less than 0.0002 µM. For the same molecule, the GI50 in experiment [1] (setting [2]) was 0.52 µM.
Turning to `COCCn1cnc(-c2ccc3c(c2)c(N2C[C@@H](C)n4c(c(CCCOc5cc(C)c(Cl)c(C)c5)c5ccc(Cl)c(-c6c(C)nn(C)c6C)c54)C2=O)cn3C)n1` [Example 530, (R)-7-Chloro-10-(3-(4-chloro-3,5-dimethylphenoxy)propyl)-2-(S-(1-(2-methoxyethyl)-1H-1,2,4-triazol-3-yl)-1-methyl-1H-indol-3-yl)-4-methyl-6-(1,3,5-trimethyl-1H-pyrazol-4-yl)-3,4-dihydropyrazino[1,2-a]indol-1(2H)-one], at Mcl-1, the inhibitory constant (Ki) is less than 0.0002 µM. Also, in experiment [1] (H929 cells, 72 h, Cell TiterGlo, 10% FBS, read-out: GI50 on cellular proliferation of H929 human cancer cell lines), the GI50 is 0.23 µM.
In the case of `Cc1cc(OCCCc2c3n(c4c(-c5c(C)nn(C)c5C)c(Cl)ccc24)[C@H](C)CN(c2cn(CC(=O)N4CCOCC4)c4ccc(-c5ncccn5)cc24)C3=O)cc(C)c1Cl` [Example 531, (R)-7-Chloro-10-(3-(4-chloro-3,5-dimethylphenoxy)propyl)-4-methyl-2-(1-(2-morpholino-2-oxoethyl)-5-(pyrimidin-2-yl)-1H-indol-3-yl)-6-(1,3,5-trimethyl-1H-pyrazol-4-yl)-3,4-dihydropyrazino[1,2-a]indol-1(2H)-one], the Ki on Mcl-1 is 0.00048 µM. Moreover, in experiment [1] (setting [2]), the GI50 was determined as 0.38 µM.
For the molecule `Cc1cc(OCCCc2c3n(c4c(-c5c(C)nn(C)c5C)c(Cl)ccc24)[C@H](C)CN(c2cn(Cc4cscn4)c4ccc(C(=O)O)cc24)C3=O)cc(C)c1Cl` [Example 532, (R)-3-(7-Chloro-10-(3-(4-chloro-3,5-dimethylphenoxy)propyl)-4-methyl-1-oxo-6-(1,3,5-trimethyl-1H-pyrazol-4-yl)-3,4-dihydropyrazino[1,2-a]indol-2(1H)-yl)-1-(thiazol-4-ylmethyl)-1H-indole-5-carboxylic acid], the inhibitory constant (Ki) at Mcl-1 turned out to be 0.0002 µM. The GI50 in experiment [1] (setting [2]) is 0.39 µM.
In the case of `Cc1cc(OCCCc2c3n(c4c(-c5c(C)nn(C)c5C)c(Cl)ccc24)[C@H](C)CN(c2cc(NC(=O)CN4CCCCC4)cc4c(C(=O)O)cn(C)c24)C3=O)cc(C)c1Cl` [Example 533, (R)-7-(7-Chloro-10-(3-(4-chloro-3,5-dimethylphenoxy)propyl)-4-methyl-1-oxo-6-(1,3,5-trimethyl-1H-pyrazol-4-yl)-3,4-dihydropyrazino[1,2-a]indol-2(1H)-yl)-1-methyl-5-(2-(piperidin-1-yl)acetamido)-1H-indole-3-carboxylic acid], the Ki at Mcl-1 stood at 0.00069 µM. For the same molecule, in experiment [1] (setting [2]), the GI50 was 1.3 µM.
In the case of `Cc1cc(OCCCc2c3n(c4c(-c5c(C)nn(C)c5C)c(Cl)ccc24)[C@H](C)CN(c2cn(CC4CCN(C)C4)c4ccc(C(=O)O)cc24)C3=O)cc(C)c1Cl` (stereo partly drawn) [Example 534, 3-((R)-7-Chloro-10-(3-(4-chloro-3,5-dimethylphenoxy)propyl)-4-methyl-1-oxo-6-(1,3,5-trimethyl-1H-pyrazol-4-yl)-3,4-dihydropyrazino[1,2-a]indol-2(1H)-yl)-1-((1-methylpyrrolidin-3-yl)methyl)-1H-indole-5-carboxylic acid], the inhibition constant (Ki) on Mcl-1 is less than 0.0002 µM. Further, in experiment [1] (setting [2]), the GI50 came to 0.52 µM.
For the molecule `COc1cc(N2C[C@@H](C)n3c(c(CCCOc4cc(C)c(Cl)c(C)c4)c4ccc(Cl)c(-c5c(C)ncnc5C)c43)C2=O)c2c(c1)cc(C(=O)O)n2C` [Example 535, (R)-7-(7-Chloro-10-(3-(4-chloro-3,5-dimethylphenoxy)propyl)-6-(4,6-dimethylpyrimidin-5-yl)-4-methyl-1-oxo-3,4-dihydropyrazino[1,2-a]indol-2(1H)-yl)-5-methoxy-1-methyl-1H-indole-2-carboxylic acid], at Mcl-1, the Ki was less than 0.0002 µM. The GI50 in experiment [1] (setting [2]) came to 0.28 µM.
The matching figures for `COc1cc(N2C[C@@H](C)n3c(c(CCCOc4cc(C)c(Cl)c(C)c4)c4ccc(Cl)c(-c5c(C)nn(C)c5C)c43)C2=O)c2c(c1)cc(C(=O)O)n2Cc1cccc(C)n1` [Example 536, (R)-7-(7-Chloro-10-(3-(4-chloro-3,5-dimethylphenoxy)propyl)-4-methyl-1-oxo-6-(1,3,5-trimethyl-1H-pyrazol-4-yl)-3,4-dihydropyrazino[1,2-a]indol-2(1H)-yl)-5-methoxy-1-((6-methylpyridin-2-yl)methyl)-1H-indole-2-carboxylic acid]: less than 0.0002 µM and less than 0.2 µM.
Turning to `COCCOc1cc(N2C[C@@H](C)n3c(c(CCCOc4cc(C)c(Cl)c(C)c4)c4ccc(Cl)c(-c5c(C)nn(C)c5C)c43)C2=O)c2c(c1)cc(C(=O)O)n2Cc1ccccn1` [Example 537, (R)-7-(7-Chloro-10-(3-(4-chloro-3,5-dimethylphenoxy)propyl)-4-methyl-1-oxo-6-(1,3,5-trimethyl-1H-pyrazol-4-yl)-3,4-dihydropyrazino[1,2-a]indol-2(1H)-yl)-5-(2-methoxyethoxy)-1-(pyridin-2-ylmethyl)-1H-indole-2-carboxylic acid], the Ki on Mcl-1 was less than 0.0002 µM. Moreover, in experiment [1] (setting [2]), the GI50 is less than 0.2 µM.
As to `COc1cc(N2C[C@@H](C)n3c(c(CCCOc4cc(C)c(Cl)c(C)c4)c4ccc(Cl)c(-c5c(C)nn(C)c5C)c43)C2=O)c2c(c1)cc(C(=O)O)n2Cc1ccccn1` [Example 538, (R)-7-(7-Chloro-10-(3-(4-chloro-3,5-dimethylphenoxy)propyl)-4-methyl-1-oxo-6-(1,3,5-trimethyl-1H-pyrazol-4-yl)-3,4-dihydropyrazino[1,2-a]indol-2(1H)-yl)-5-methoxy-1-(pyridin-2-ylmethyl)-1H-indole-2-carboxylic acid], the Ki at Mcl-1 is less than 0.0002 µM. Moreover, the GI50 in experiment [1] (setting [2]) is less than 0.2 µM.
As to `COCCOc1cc(N2C[C@@H](C)n3c(c(CCCOc4cc(C)c(Cl)c(C)c4)c4ccc(Cl)c(-c5c(C)ncnc5C)c43)C2=O)c2c(c1)cc(C(=O)O)n2C` [Example 539, (R)-7-(7-Chloro-10-(3-(4-chloro-3,5-dimethylphenoxy)propyl)-6-(4,6-dimethylpyrimidin-5-yl)-4-methyl-1-oxo-3,4-dihydropyrazino[1,2-a]indol-2(1H)-yl)-5-(2-methoxyethoxy)-1-methyl-1H-indole-2-carboxylic acid], at Mcl-1, the inhibition constant (Ki) is less than 0.0002 µM. Further, in experiment [1] (setting [2]), the GI50 was less than 0.2 µM.
On to `COCCOc1cc(N2C[C@@H](C)n3c(c(CCCOc4cc(C)c(Cl)c(C)c4)c4ccc(Cl)c(-c5c(C)nn(C)c5C)c43)C2=O)c2c(c1)cc(C(=O)O)n2Cc1cccc(C)n1` [Example 540, (R)-7-(7-Chloro-10-(3-(4-chloro-3,5-dimethylphenoxy)propyl)-4-methyl-1-oxo-6-(1,3,5-trimethyl-1H-pyrazol-4-yl)-3,4-dihydropyrazino[1,2-a]indol-2(1H)-yl)-5-(2-methoxyethoxy)-1-((6-methylpyridin-2-yl)methyl)-1H-indole-2-carboxylic acid], for which the Ki at Mcl-1 was less than 0.0002 µM. Further, the GI50 in experiment [1] (setting [2]) is less than 0.2 µM.
For `Cc1cc(OCCCc2c3n(c4c(-c5c(C)nn(C)c5C)c(Cl)ccc24)[C@H](C)CN(c2cc(NC(=O)CCN(C)C)cc4c(C(=O)O)cn(C)c24)C3=O)cc(C)c1Cl` [Example 541, (R)-7-(7-Chloro-10-(3-(4-chloro-3,5-dimethylphenoxy)propyl)-4-methyl-1-oxo-6-(1,3,5-trimethyl-1H-pyrazol-4-yl)-3,4-dihydropyrazino[1,2-a]indol-2(1H)-yl)-5-(3-(dimethylamino)propanamido)-1-methyl-1H-indole-3-carboxylic acid], the Ki at Mcl-1 amounted to 0.00053 µM. Besides, the GI50 in experiment [1] (setting [2]) came out at 1.7 µM.
For the molecule `Cc1cc(OCCCc2c3n(c4c(-c5c(C)nn(C)c5C)c(Cl)ccc24)[C@H](C)CN(c2cc(NC(=O)CN(C)C)cc4c(C(=O)O)cn(C)c24)C3=O)cc(C)c1Cl` [Example 542, (R)-7-(7-Chloro-10-(3-(4-chloro-3,5-dimethylphenoxy)propyl)-4-methyl-1-oxo-6-(1,3,5-trimethyl-1H-pyrazol-4-yl)-3,4-dihydropyrazino[1,2-a]indol-2(1H)-yl)-5-(2-(dimethylamino)acetamido)-1-methyl-1H-indole-3-carboxylic acid], the inhibition constant Ki on Mcl-1 was 0.00048 µM. Further, the GI50 in experiment [1] (setting [2]) amounted to 3.3 µM.
`Cc1cc(OCCCc2c3n(c4c(-c5c(C)nn(C)c5C)c(Cl)ccc24)[C@H](C)CN(c2cn(CCN4CCCCC4)c4ccc(C(=O)O)cc24)C3=O)cc(C)c1Cl` [Example 543, (R)-3-(7-Chloro-10-(3-(4-chloro-3,5-dimethylphenoxy)propyl)-4-methyl-1-oxo-6-(1,3,5-trimethyl-1H-pyrazol-4-yl)-3,4-dihydropyrazino[1,2-a]indol-2(1H)-yl)-1-(2-(piperidin-1-yl)ethyl)-1H-indole-5-carboxylic acid]: the inhibition constant (Ki) at Mcl-1 was found to be 0.0029 µM. Also, the GI50 in experiment [1] (setting [2]) amounted to 1.8 µM.
